Results on five compounds are retold here after PubChem BioAssay (NCI).

Test systems include DMS 273 small cell lung; KM20L2 colon; RXF-631 renal; P388 leukemia; P388/ADR leukemia; SN12K1 renal.
Holding throughout (test): NCI tumour cell line growth inhibition, 48 h

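Test compounds were applied to cells in 96-well plates for 48 hours at 5 doses. TGI: concentration producing complete growth inhibition.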

For `Cc1cccc2[s+]snc12`, the TGI is more than 100 µM with DMS 273 small cell lung, more than 100 µM with KM20L2 colon and 43.4 µM with RXF-631 renal.
Regarding `CC12CCC(C(=O)N3CC=CCC3)(OC1=O)C2(C)C` (stereo unspecified), the TGI in the test on DMS 273 small cell lung, with KM20L2 colon, with P388 leukemia, with P388/ADR leukemia and with SN12K1 renal was more than 100 µM in each case.
As to `CC1=CC(=O)C(=O)C2=C1OC1(C2)C(C)CCC2C3(C)CCC(O)C(C)(C)C3CCC21C` (stereo unspecified), the TGI in the test on DMS 273 small cell lung is 60.9 µM; with KM20L2 colon it was 37.4 µM.
With `O=C(O)C1Cc2c([nH]c3ccccc23)C=N1` (stereo unspecified), the TGI in the test on DMS 273 small cell lung, in the test on KM20L2 colon, with P388 leukemia and in the test on P388/ADR leukemia was more than 100 µM each time.
For `N=C(N)c1csc([C@@H]2O[C@H](CO)[C@@H](O)[C@H]2O)n1`, the TGI in the test with DMS 273 small cell lung and in the test with RXF-631 renal was more than 100 µM each time.
